Literature values in patent publication US11377636B2, “Endogenous retrovirus transcription as a marker for primate naive pluripotent stem cells” (Max-Delbrück-Centrum für Molekulare Medizin in der …, priority 2014, dated 2022).
Values belong to the compound of their own block, whether it stands above or below them.

Key:
KDR = KDR (Homo sapiens, UniProt P35968)
Src kinase = Src kinase (Homo sapiens, UniProt P12931)
PKCδ = PKCδ (Homo sapiens, UniProt Q05655)
PKCμ = biological target: T1, PKCμ (Homo sapiens, UniProt Q15139); details: does not effectively inhibit PKCμ
T1 sequence (Q15139 1-912): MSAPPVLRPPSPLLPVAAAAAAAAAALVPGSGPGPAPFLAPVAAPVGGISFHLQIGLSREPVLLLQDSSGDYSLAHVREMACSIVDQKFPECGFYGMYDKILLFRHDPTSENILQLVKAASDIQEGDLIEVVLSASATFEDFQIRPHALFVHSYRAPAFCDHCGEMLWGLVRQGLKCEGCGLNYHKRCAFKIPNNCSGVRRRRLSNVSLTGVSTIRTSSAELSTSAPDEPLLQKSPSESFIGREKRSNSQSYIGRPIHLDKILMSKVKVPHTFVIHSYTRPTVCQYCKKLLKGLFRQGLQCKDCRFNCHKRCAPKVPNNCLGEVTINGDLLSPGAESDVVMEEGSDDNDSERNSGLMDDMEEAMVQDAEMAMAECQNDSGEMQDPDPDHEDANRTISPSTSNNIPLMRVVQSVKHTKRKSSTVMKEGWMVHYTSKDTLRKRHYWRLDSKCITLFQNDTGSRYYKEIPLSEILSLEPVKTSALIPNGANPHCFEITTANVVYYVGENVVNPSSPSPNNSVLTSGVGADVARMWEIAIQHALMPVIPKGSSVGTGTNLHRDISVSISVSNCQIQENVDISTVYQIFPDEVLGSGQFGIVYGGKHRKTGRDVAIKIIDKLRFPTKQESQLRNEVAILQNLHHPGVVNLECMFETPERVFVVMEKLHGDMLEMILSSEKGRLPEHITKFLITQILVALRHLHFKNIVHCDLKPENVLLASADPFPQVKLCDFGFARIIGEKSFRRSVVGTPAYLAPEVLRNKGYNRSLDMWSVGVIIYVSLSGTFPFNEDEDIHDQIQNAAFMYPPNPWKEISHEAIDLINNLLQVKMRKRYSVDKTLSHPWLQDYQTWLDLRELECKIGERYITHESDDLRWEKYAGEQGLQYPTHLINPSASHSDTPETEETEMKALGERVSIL

PKCζ = biological target: T2, PKCζ (Homo sapiens, UniProt Q05513)
T2 sequence (Q05513 1-592): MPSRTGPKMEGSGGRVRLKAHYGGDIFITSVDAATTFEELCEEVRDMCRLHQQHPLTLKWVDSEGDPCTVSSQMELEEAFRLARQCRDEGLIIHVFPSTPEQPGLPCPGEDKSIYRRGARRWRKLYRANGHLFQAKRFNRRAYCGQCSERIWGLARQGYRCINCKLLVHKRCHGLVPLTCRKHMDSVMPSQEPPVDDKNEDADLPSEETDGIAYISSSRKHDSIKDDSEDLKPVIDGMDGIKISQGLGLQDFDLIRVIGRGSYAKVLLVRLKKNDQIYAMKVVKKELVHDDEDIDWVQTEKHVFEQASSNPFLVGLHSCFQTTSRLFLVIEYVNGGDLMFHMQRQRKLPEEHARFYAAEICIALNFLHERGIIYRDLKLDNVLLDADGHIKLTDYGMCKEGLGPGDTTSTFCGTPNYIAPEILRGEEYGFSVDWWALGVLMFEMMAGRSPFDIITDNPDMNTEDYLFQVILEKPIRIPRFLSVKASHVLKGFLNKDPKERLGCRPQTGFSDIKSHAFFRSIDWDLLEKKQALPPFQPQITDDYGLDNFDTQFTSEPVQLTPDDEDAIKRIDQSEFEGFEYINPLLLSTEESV

PKCγ = PKCγ (Homo sapiens, UniProt P05129)
PKCα = PKCα (Homo sapiens, UniProt P17252)
PKCβ = PKCβ (Homo sapiens, UniProt P05771)
PKCβ, sequence (P05771 whole entry, species assumed): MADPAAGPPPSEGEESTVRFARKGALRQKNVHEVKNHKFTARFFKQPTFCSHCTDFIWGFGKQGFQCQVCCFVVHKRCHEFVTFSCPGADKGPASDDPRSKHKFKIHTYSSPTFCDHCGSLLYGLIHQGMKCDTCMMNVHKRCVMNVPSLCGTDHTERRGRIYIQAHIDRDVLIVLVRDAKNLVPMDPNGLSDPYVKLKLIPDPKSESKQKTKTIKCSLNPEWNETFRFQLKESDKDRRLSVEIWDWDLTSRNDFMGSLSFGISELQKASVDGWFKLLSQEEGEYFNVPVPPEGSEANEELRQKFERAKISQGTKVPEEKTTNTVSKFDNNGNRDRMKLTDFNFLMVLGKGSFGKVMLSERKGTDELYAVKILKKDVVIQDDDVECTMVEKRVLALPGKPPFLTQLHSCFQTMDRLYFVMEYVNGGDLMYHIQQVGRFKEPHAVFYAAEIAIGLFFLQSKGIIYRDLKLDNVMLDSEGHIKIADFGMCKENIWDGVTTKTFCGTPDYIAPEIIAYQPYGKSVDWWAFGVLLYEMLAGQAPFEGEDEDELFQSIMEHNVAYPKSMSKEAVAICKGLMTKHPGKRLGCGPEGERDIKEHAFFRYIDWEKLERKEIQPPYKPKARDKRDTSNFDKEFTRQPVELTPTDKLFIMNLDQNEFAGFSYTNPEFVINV

GSK3β = GSK3β (Homo sapiens, UniProt P49841)
GSK3β, sequence (P49841 whole entry, species assumed): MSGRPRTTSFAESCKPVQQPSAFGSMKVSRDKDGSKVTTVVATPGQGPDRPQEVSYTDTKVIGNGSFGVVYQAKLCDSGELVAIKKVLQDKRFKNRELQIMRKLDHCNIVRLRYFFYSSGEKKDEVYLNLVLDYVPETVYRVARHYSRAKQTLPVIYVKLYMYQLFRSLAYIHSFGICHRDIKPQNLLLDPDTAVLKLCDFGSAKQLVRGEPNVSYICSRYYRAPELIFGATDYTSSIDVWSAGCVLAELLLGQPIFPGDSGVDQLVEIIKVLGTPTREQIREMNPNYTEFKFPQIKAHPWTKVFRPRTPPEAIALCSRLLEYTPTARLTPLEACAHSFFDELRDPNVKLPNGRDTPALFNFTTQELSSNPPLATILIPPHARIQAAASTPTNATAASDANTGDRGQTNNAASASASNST

KDR, sequence (P35968 20-1356, species assumed): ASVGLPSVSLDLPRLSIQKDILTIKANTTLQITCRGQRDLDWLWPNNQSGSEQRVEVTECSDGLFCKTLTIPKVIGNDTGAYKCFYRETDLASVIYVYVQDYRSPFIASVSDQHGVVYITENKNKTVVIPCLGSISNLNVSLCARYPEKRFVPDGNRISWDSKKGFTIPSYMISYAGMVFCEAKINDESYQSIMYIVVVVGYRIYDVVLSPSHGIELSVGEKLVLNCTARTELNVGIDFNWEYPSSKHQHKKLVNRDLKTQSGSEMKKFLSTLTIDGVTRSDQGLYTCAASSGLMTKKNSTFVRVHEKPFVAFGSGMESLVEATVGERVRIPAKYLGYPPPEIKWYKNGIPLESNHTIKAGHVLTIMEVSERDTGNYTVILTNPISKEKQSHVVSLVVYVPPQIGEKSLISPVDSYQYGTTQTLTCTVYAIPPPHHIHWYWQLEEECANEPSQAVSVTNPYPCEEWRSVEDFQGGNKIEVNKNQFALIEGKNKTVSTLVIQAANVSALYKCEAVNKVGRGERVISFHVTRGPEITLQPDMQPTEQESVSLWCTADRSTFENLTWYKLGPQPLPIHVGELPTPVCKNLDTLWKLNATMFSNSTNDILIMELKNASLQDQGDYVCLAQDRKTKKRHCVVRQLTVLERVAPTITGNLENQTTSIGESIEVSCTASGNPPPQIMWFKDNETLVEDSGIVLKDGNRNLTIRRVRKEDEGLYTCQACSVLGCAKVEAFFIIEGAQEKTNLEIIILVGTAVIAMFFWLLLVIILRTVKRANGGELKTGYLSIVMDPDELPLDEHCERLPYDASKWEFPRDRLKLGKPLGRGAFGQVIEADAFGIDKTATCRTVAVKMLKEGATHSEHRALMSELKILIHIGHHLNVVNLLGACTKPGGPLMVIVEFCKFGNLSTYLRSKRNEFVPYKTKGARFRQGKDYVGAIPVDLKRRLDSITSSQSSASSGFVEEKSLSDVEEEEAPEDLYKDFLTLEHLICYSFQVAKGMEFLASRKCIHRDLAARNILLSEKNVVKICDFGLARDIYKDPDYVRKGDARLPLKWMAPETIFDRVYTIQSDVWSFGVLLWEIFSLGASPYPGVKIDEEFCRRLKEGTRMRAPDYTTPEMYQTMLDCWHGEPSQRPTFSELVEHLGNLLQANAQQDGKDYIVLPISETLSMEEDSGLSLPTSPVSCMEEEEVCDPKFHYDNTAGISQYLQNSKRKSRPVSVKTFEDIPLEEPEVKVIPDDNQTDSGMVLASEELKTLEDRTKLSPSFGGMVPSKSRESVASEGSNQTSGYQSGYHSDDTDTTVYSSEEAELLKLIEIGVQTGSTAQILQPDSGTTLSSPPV
PKCδ, sequence (Q05655 whole entry): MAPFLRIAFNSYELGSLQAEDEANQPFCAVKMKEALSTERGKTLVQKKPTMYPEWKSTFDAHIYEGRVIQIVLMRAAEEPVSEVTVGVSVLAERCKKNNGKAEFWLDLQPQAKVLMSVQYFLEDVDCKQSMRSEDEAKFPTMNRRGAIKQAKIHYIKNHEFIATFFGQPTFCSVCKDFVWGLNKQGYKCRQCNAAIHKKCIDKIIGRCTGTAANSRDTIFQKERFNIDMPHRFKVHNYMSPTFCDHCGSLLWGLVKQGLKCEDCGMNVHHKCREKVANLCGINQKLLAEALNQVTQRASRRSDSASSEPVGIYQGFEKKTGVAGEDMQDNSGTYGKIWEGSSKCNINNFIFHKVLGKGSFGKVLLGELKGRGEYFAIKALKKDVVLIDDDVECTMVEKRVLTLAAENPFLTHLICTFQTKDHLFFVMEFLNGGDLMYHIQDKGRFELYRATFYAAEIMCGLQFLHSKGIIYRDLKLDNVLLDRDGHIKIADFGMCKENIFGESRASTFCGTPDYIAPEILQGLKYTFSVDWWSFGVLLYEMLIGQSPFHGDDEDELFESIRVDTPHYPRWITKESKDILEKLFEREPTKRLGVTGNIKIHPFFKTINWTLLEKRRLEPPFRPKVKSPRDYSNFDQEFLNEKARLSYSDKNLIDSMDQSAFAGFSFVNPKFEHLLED

Compound: CN1C(=O)[C@@]23C[C@]4([C@]56C[C@@]78SS[C@@](CO)(C(=O)N7[C@H]5Nc5ccccc56)N(C)C8=O)c5ccccc5N[C@@H]4N2C(=O)[C@]1(CO)SS3 [Chaetocin]
cytotoxicity against HeLa cells IC50 (HeLa cells): 0.05 µg/mL

inhibition on KDR (KDR): little inhibition | IC50 (Src kinase): 6 nM
Compound: WH-4-023

Compound: COc1ccc2c(c1)c(C1=C(c3c[nH]c4ccccc34)C(=O)NC1=O)cn2CCCN(C)C [Go6983]
IC50 (PKCδ): 10 nM | IC50 (PKCμ): 20000 nM | IC50 (PKCζ): 60 nM | IC50 (PKCγ): 6 nM | IC50 (PKCα): 7 nM | IC50 (PKCβ): 7 nM

IC50 (GSK3β): 53 nM
Compound: Cc1[nH]c2ccccc2c1C1=C(NCCc2ccc(F)cc2)C(=O)N(C)C1=O [IM-12]
